# Key:
# Cd (Cyperus difformis) = assay: Example 6 weed control, JAAPR, Japan; format: in vivo
# Experimental: (§1) In this example, the efficacy of Herbicide A is presented for a variety of weeds in the presence of ordinary and infant transplant rice. In this example, tests were conducted at the said JAAPR Lab at different times of the year. "Early season" transplants were made in April and "Normal season" transplants were made in July. The size of the transplants at the respective seasons were: Season Seedling Type Plant Height (cm) Leaf Stage ______________________________________ Early Ordinary 16.5 4.5 Early Infant 9.1 2.4 Normal Ordinary 41.7 5.3 Normal Infant 14.7 1.9 ______________________________________
# (§2) Duplicate treatments were used. At the time of application of the herbicide, the status of the grass (EC) was as follows: […]
# Cs (Cyperus serotinus) = assay: Example 6 weed control, JAAPR, Japan; format: in vivo; conditions: Normal season
# Experimental: as §1, §2
# [1] = tested on: Ea (Eleocharis acicularis); assay: Example 6 weed control, JAAPR, Japan; format: in vivo
# Experimental: as §1, §2
# [2] = tested on: Ec (Echinochloa crusgalli); assay: Example 6 weed control, JAAPR, Japan; format: in vivo
# Experimental: as §1, §2
# Et (Elatine triandra) = assay: Example 6 weed control, JAAPR, Japan; format: in vivo
# Experimental: as §1, §2
# [3] = tested on: Mv (Monochoria vaginalis); assay: Example 6 weed control, JAAPR, Japan; format: in vivo
# Experimental: as §1, §2
# [4] = tested on: Obw (other broadleaf weeds); assay: Example 6 weed control, JAAPR, Japan; format: in vivo; conditions: ordinary
# Experimental: as §1, §2
# Ri (Rotala indica) = assay: Example 6 weed control, JAAPR, Japan; format: in vivo
# Experimental: as §1, §2
# [5] = tested on: weeds in transplanted rice; assay: Example 6 overall; format: in vivo
# Experimental: as §1, §2
# [6] = tested on: direct-seeded rice plants; conditions: 1.0 lb/ac and 0.25 lb/ac; '620 and '945 Table I; cited from earlier work
# [7] = Early season, ordinary, 1.0 kg/ha, 3 DAT
# [8] = Early season, ordinary, 1.0 kg/ha, 12 DAT
# [9] = Early season, ordinary, 1.0 kg/ha, -2 DAT
# [10] = Early season, ordinary, .5 kg/ha, 3 DAT
# [11] = Early season, ordinary, .5 kg/ha, 12 DAT
# [12] = Early season, ordinary, .5 kg/ha, -2 DAT
# [13] = Normal season, infant, 1.0 kg/ha, 3 DAT
# [14] = Normal season, infant, 1.0 kg/ha, 7 DAT
# [15] = Normal season, infant, 1.0 kg/ha, -2 DAT
# [16] = Normal season, infant, .5 kg/ha, 3 DAT
# [17] = Normal season, infant, .5 kg/ha, 7 DAT
# [18] = Normal season, infant, .5 kg/ha, -2 DAT
# [19] = Normal season, ordinary, 1.0 kg/ha, 3 DAT
# [20] = Normal season, ordinary, 1.0 kg/ha, 7 DAT
# [21] = Normal season, ordinary, 1.0 kg/ha, -2 DAT
# [22] = Normal season, ordinary, .5 kg/ha, 3 DAT
# [23] = Normal season, ordinary, .5 kg/ha, 7 DAT
# [24] = Normal season, ordinary, .5 kg/ha, -2 DAT
smiles,measurement,setting,value
"CCCCOCN(C(=O)CCl)c1c(C)cccc1C(C)(C)C [Herbicide A, n-(butoxymethyl)-6'-tert-butyl-2-chloro-o-acetotoluidide]",% Weed Control (Cd),Cd (Cyperus difformis); [7],100%
same,% Weed Control (Cd),Cd (Cyperus difformis); [8],100%
same,% Weed Control (Cd),Cd (Cyperus difformis); [9],100%
same,% Weed Control (Cd),Cd (Cyperus difformis); [10],100%
same,% Weed Control (Cd),Cd (Cyperus difformis); [11],100%
same,% Weed Control (Cd),Cd (Cyperus difformis); [12],100%
same,% Weed Control (Cd),Cd (Cyperus difformis); [13],100%
same,% Weed Control (Cd),Cd (Cyperus difformis); [14],100%
same,% Weed Control (Cd),Cd (Cyperus difformis); [15],100%
same,% Weed Control (Cd),Cd (Cyperus difformis); [16],100%
same,% Weed Control (Cd),Cd (Cyperus difformis); [17],100%
same,% Weed Control (Cd),Cd (Cyperus difformis); [18],100%
same,% Weed Control (Cd),Cd (Cyperus difformis); [19],100%
same,% Weed Control (Cd),Cd (Cyperus difformis); [20],100%
same,% Weed Control (Cd),Cd (Cyperus difformis); [21],100%
same,% Weed Control (Cd),Cd (Cyperus difformis); [22],100%
same,% Weed Control (Cd),Cd (Cyperus difformis); [23],100%
same,% Weed Control (Cd),Cd (Cyperus difformis); [24],100%
same,% Weed Control (Cs),"Cs (Cyperus serotinus); infant, 1.0 kg/ha, 3 DAT",100%
same,% Weed Control (Cs),"Cs (Cyperus serotinus); infant, 1.0 kg/ha, 7 DAT",100%
same,% Weed Control (Cs),"Cs (Cyperus serotinus); infant, 1.0 kg/ha, -2 DAT",100%
same,% Weed Control (Cs),"Cs (Cyperus serotinus); infant, .5 kg/ha, 3 DAT",100%
same,% Weed Control (Cs),"Cs (Cyperus serotinus); infant, .5 kg/ha, 7 DAT",100%
same,% Weed Control (Cs),"Cs (Cyperus serotinus); infant, .5 kg/ha, -2 DAT",100%
same,% Weed Control (Cs),"Cs (Cyperus serotinus); ordinary, 1.0 kg/ha, 3 DAT",100%
same,% Weed Control (Cs),"Cs (Cyperus serotinus); ordinary, 1.0 kg/ha, 7 DAT",100%
same,% Weed Control (Cs),"Cs (Cyperus serotinus); ordinary, 1.0 kg/ha, -2 DAT",100%
same,% Weed Control (Cs),"Cs (Cyperus serotinus); ordinary, .5 kg/ha, 3 DAT",100%
same,% Weed Control (Cs),"Cs (Cyperus serotinus); ordinary, .5 kg/ha, 7 DAT",100%
same,% Weed Control (Cs),"Cs (Cyperus serotinus); ordinary, .5 kg/ha, -2 DAT",100%
same,% Weed Control (Ea),[1]; [7],100%
same,% Weed Control (Ea),[1]; [8],100%
same,% Weed Control (Ea),[1]; [9],100%
same,% Weed Control (Ea),[1]; [10],100%
same,% Weed Control (Ea),[1]; [11],100%
same,% Weed Control (Ea),[1]; [12],100%
same,% Weed Control (Ea),[1]; [13],100%
same,% Weed Control (Ea),[1]; [14],100%
same,% Weed Control (Ea),[1]; [15],100%
same,% Weed Control (Ea),[1]; [16],100%
same,% Weed Control (Ea),[1]; [17],100%
same,% Weed Control (Ea),[1]; [18],100%
same,% Weed Control (Ea),[1]; [19],100%
same,% Weed Control (Ea),[1]; [20],100%
same,% Weed Control (Ea),[1]; [21],100%
same,% Weed Control (Ea),[1]; [22],100%
same,% Weed Control (Ea),[1]; [23],100%
same,% Weed Control (Ea),[1]; [24],100%
same,% Weed Control (Ec),[2]; [7],100%
same,% Weed Control (Ec),[2]; [8],100%
same,% Weed Control (Ec),[2]; [9],100%
same,% Weed Control (Ec),[2]; [10],100%
same,% Weed Control (Ec),[2]; [11],100%
same,% Weed Control (Ec),[2]; [12],100%
same,% Weed Control (Ec),[2]; [13],100%
same,% Weed Control (Ec),[2]; [14],100%
same,% Weed Control (Ec),[2]; [15],100%
same,% Weed Control (Ec),[2]; [16],100%
same,% Weed Control (Ec),[2]; [17],100%
same,% Weed Control (Ec),[2]; [18],100%
same,% Weed Control (Ec),[2]; [19],100%
same,% Weed Control (Ec),[2]; [20],100%
same,% Weed Control (Ec),[2]; [21],100%
same,% Weed Control (Ec),[2]; [22],100%
same,% Weed Control (Ec),[2]; [23],95%
same,% Weed Control (Ec),[2]; [24],100%
same,% Weed Control (Et),Et (Elatine triandra); [7],95%
same,% Weed Control (Et),Et (Elatine triandra); [8],70%
same,% Weed Control (Et),Et (Elatine triandra); [9],95%
same,% Weed Control (Et),Et (Elatine triandra); [10],70%
same,% Weed Control (Et),Et (Elatine triandra); [11],< 40%
same,% Weed Control (Et),Et (Elatine triandra); [12],95%
same,% Weed Control (Et),Et (Elatine triandra); [13],100%
same,% Weed Control (Et),Et (Elatine triandra); [14],100%
same,% Weed Control (Et),Et (Elatine triandra); [15],100%
same,% Weed Control (Et),Et (Elatine triandra); [16],100%
same,% Weed Control (Et),Et (Elatine triandra); [17],100%
same,% Weed Control (Et),Et (Elatine triandra); [18],100%
same,% Weed Control (Et),Et (Elatine triandra); [19],100%
same,% Weed Control (Et),Et (Elatine triandra); [20],100%
same,% Weed Control (Et),Et (Elatine triandra); [21],100%
same,% Weed Control (Et),Et (Elatine triandra); [22],100%
same,% Weed Control (Et),Et (Elatine triandra); [23],100%
same,% Weed Control (Et),Et (Elatine triandra); [24],100%
same,% Weed Control (Mv),[3]; [7],100%
same,% Weed Control (Mv),[3]; [8],95%
same,% Weed Control (Mv),[3]; [9],100%
same,% Weed Control (Mv),[3]; [10],95%
same,% Weed Control (Mv),[3]; [11],95%
same,% Weed Control (Mv),[3]; [12],95%
same,% Weed Control (Mv),[3]; [13],100%
same,% Weed Control (Mv),[3]; [14],85%
same,% Weed Control (Mv),[3]; [15],100%
same,% Weed Control (Mv),[3]; [16],100%
same,% Weed Control (Mv),[3]; [17],70%
same,% Weed Control (Mv),[3]; [18],100%
same,% Weed Control (Mv),[3]; [19],100%
same,% Weed Control (Mv),[3]; [20],100%
same,% Weed Control (Mv),[3]; [21],100%
same,% Weed Control (Mv),[3]; [22],100%
same,% Weed Control (Mv),[3]; [23],95%
same,% Weed Control (Mv),[3]; [24],100%
same,% Weed Control (Obw),"[4]; Early season, 1.0 kg/ha, 3 DAT",100%
same,% Weed Control (Obw),"[4]; Early season, 1.0 kg/ha, 12 DAT",50%
same,% Weed Control (Obw),"[4]; Early season, 1.0 kg/ha, -2 DAT",100%
same,% Weed Control (Obw),"[4]; Early season, .5 kg/ha, 3 DAT",100%
same,% Weed Control (Obw),"[4]; Early season, .5 kg/ha, 12 DAT",100%
same,% Weed Control (Obw),"[4]; Early season, .5 kg/ha, -2 DAT",100%
same,% Weed Control (Obw),"[4]; Normal season, 1.0 kg/ha, 3 DAT",100%
same,% Weed Control (Obw),"[4]; Normal season, 1.0 kg/ha, 7 DAT",100%
same,% Weed Control (Obw),"[4]; Normal season, 1.0 kg/ha, -2 DAT",100%
same,% Weed Control (Obw),"[4]; Normal season, .5 kg/ha, 3 DAT",100%
same,% Weed Control (Obw),"[4]; Normal season, .5 kg/ha, 7 DAT",100%
same,% Weed Control (Obw),"[4]; Normal season, .5 kg/ha, -2 DAT",100%
same,% Weed Control (Ri),Ri (Rotala indica); [7],100%
same,% Weed Control (Ri),Ri (Rotala indica); [8],100%
same,% Weed Control (Ri),Ri (Rotala indica); [9],100%
same,% Weed Control (Ri),Ri (Rotala indica); [10],100%
same,% Weed Control (Ri),Ri (Rotala indica); [11],100%
same,% Weed Control (Ri),Ri (Rotala indica); [12],100%
same,% Weed Control (Ri),Ri (Rotala indica); [13],100%
same,% Weed Control (Ri),Ri (Rotala indica); [14],100%
same,% Weed Control (Ri),Ri (Rotala indica); [15],100%
same,% Weed Control (Ri),Ri (Rotala indica); [16],100%
same,% Weed Control (Ri),Ri (Rotala indica); [17],100%
same,% Weed Control (Ri),Ri (Rotala indica); [18],100%
same,% Weed Control (Ri),Ri (Rotala indica); [19],100%
same,% Weed Control (Ri),Ri (Rotala indica); [20],100%
same,% Weed Control (Ri),Ri (Rotala indica); [21],100%
same,% Weed Control (Ri),Ri (Rotala indica); [22],100%
same,% Weed Control (Ri),Ri (Rotala indica); [23],100%
same,% Weed Control (Ri),Ri (Rotala indica); [24],100%
same,weed control in words,[5]; all weeds except Sagittaria (Sp),very effective
same,"toxicity to weeds and rice, normal vs early season",[5]; normal season vs early season,slightly more toxic to both weeds and rice
same,efficacious application period,[5]; relative to transplanting,from 2 days before transplanting to 12 DAT
same,phytotoxicity to direct-seeded rice,[6],severe phytotoxicity
